This note sets out measurements from patent US20130203861A1, “METHODS AND COMPOSITIONS FOR TREATING OVARIAN CANCER” (GOLDEN BIOTECHNOLOGY CORPORATION, priority 2009, published 2013).

The subject of this assay is ovarian cancer cell line ES-2. Description: MTT assay for anti-ovarian cancer (cell survival). It is filed as cell-based. The settings on record: Homo sapiens, ES-2 cells, 48 hours treatment, absorbance at 570 nm, read-out: IC50 (half inhibition concentration), inhibition of ovarian cancer cells. On the procedure:
Exemplary Compound 1 was added into the culture media of ovarian cancer cell line ES-2 (a human ovarian cancer cell line) to determine the survival rates. Survival of cells was analyzed using MTT assay. Other suitable human ovarian cancer cell lines may be used by a skilled person in the art.
MTT assay is commonly used to analyze cell proliferation, survival rate of viable cells and cytotoxicity. MTT (3[4,5-dimethylthiazol-2-yl]-2,5-diphenyltetrazolium bromide) is a yellow dye which can be converted to water-insoluble purple formazan on the reductive cleavage of its tetrazolium ring by the succinate tetrazolium reductase in mitochondria of cells. The amount of formazan produced is used to detect the number of viable cells and calculate the survival rates.
The ES-2 cells were cultivated in McCoy' 5 A medium supplemented with 10% fetal bovine serum, 10 U/ml of Penicillin and 100 μg/ml of Streptomycin at 37° C., 5% CO2 for 24 hours. Proliferated cells were washed once with PBS, treated with 1× trypsin-EDTA, and centrifuged at 1200 rpm for 5 min. The supernatant was removed and the cell pellet was resuspended in 10 ml of fresh medium by gently shaking. Cells were seeded onto 96-well plates. […] The absorbances were measured at 570 nm with an ELISA Reader to determine the survival rates.

≈ marks a conversion by molar mass, not a printed value.

As to `COC1=C(OC)C(O)C(C/C=C(\C)CC/C=C(\C)CCC=C(C)C)C(C)C1=O` (stereo not shown) [Compound 1, 4-hydroxy-2,3-dimethoxy-6-methyl-5-(3,7,11-trimethyldodeca-2,6,10-trienyl)cyclohex-2-enone], the IC50 stood at 0.8 µg/mL (≈ 2.05 µM).
